From article PMC7587441, “Plasmodium falciparum Apicomplexan-Specific Glucosamine-6-Phosphate N-Acetyltransferase Is Key for Amino Sugar Metabolism and Asexual Blood Stage Development” (mBio, 2020)

Target: T1, CpGNA1 (Cryptosporidium parvum, UniProt Q5CPU3)
T1 construct: gene SSAT; E. coli BL21 Star; GST cut off with PreScission protease, GPLGS left at N terminus; dimer (sugar site formed by both monomers)
Test: X-ray crystal structure, […] Å
Format: binding

T1 sequence (Q5CPU3 whole entry): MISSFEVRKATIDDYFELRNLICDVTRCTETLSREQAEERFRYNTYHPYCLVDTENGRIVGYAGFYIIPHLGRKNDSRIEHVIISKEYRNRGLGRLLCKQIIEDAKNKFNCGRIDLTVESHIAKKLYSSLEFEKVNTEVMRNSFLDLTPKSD

SMILES	X-ray crystal structure, 1.95 Å (crystal soaked with 50 mM Glc6P and 50 mM acetyl-CoA, pseudosubstrate in GlcN6P site)	X-ray crystal structure, 1.95 Å (cocrystallized with 10 mM acetyl-CoA, soaked with 50 mM acetyl-CoA and 50 mM Glc6P, acetyl-CoA site)
O=P(O)(O)OC[C@H]1OC(O)[C@H](O)[C@@H](O)[C@@H]1O (some centres unmarked) [Glc6P]	dimeric structure of CpGNA1 in complex with acetyl-CoA and glucose-6-phosphate (Glc6P)	
CC(=O)SCCNC(=O)CCNC(=O)[C@H](O)C(C)(C)COP(=O)(O)OP(=O)(O)OC[C@H]1O[C@@H](n2cnc3c(N)ncnc32)[C@H](O)[C@@H]1OP(=O)(O)O [acetyl-CoA]		dimeric structure of CpGNA1 in complex with acetyl-CoA and glucose-6-phosphate (Glc6P)
